Laboratory results taken from US11717013B1, “Micronutrient combination to reduce blood pressure” (priority 2022, dated 2023).

Molecular target: T1, Angiotensin I Converting Enzyme isolated from cultured human aortic endothelial cells (Homo sapiens, UniProt P12821)
T1 construct: host or cells: human aortic endothelial cells (AoEC), lysed with CelLytic M
Assay: ACE activity assay, ACE isolated from cultured human aortic endothelial cells
Type: biochemical
Conditions: 200 mcg/ml (FIG. 5); read-out: inhibition of ACE1 activity
Protocol: ACE 1 activity: Effects of New Micronutrient composition on catalytic activity of Angiotensin I Converting Enzyme (ACE) was analyzed using recombinant catalytic ACE domain (Sigma) or ACE isolated from cultured human aortic endothelial cells (AoEC) with ACE Activity Assay Kit (Fluorometric, Sigma, Catalog Number CS0002) in accordance with manufacturer's protocol. For preparation of cell lysate ACE human AoEC (Lonza) were plated in 75 cm2 plastic flask at 6th passage and cultured with EGB-2 endothelial cell culture medium (Lonza) in 5%CO2 at 37 °C until cell forming a confluent layer. Cells were washed twice with 10 ml phosphate buffered solution (PBS) and lysated by scratching and resuspending in 5 ml CelLytic™ M solution (Sigma) after 15 min incubation at room temperature. Results are expressed as percentage of untreated controls presented as averages +/− SD from three replicates. The results on FIG. 4 show concentration dependent inhibitory effect of the micronutrient composition for blood pressure lowering on catalytic activity of Angiotensin1 converting enzyme. Changes in ACE1 activity are expressed in % compared to control. The formula applied at 3 mcg/ml inhibits ACE1 by 20% with the most pronounced inhibitory effect of 90% and 97% obtained at 50 mcg/ml and 200 mcg/ml respectively. […]

T1 sequence (P12821 30-1306): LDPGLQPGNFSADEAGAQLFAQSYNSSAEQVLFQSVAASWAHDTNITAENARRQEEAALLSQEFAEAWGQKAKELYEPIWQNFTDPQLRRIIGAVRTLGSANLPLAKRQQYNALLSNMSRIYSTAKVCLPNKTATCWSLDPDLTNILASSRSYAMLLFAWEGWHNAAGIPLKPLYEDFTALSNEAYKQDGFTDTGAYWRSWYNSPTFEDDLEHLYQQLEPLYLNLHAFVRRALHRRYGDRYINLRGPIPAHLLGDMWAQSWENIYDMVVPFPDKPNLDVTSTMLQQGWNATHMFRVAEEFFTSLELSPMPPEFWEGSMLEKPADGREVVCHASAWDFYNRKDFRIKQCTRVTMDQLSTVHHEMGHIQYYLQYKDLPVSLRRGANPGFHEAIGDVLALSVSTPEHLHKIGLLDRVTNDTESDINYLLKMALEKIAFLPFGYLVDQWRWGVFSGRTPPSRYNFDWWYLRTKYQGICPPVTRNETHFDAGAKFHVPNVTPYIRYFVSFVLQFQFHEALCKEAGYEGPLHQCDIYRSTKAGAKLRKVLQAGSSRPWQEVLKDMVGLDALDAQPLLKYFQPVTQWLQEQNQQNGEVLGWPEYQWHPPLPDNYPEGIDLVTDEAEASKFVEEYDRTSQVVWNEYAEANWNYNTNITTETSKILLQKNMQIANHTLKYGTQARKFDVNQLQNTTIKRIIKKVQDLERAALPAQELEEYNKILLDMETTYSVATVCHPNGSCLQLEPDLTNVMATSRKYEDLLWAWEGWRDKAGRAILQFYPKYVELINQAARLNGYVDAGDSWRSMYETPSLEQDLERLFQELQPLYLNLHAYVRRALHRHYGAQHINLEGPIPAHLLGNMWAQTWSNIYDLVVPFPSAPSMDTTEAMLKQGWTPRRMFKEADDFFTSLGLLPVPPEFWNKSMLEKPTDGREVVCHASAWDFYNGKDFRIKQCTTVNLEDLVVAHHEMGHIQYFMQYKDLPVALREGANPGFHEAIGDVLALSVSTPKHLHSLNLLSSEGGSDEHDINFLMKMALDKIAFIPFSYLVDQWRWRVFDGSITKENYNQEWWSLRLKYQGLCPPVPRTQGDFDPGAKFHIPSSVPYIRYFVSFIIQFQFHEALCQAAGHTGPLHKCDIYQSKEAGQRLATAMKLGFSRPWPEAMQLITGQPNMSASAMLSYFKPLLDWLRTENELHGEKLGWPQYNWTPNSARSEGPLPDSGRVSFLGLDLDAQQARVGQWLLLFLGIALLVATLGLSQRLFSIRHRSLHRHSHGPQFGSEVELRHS

inhibition at 200 µg/mL: 16%
Structure (SMILES): NCCCC[C@H](N[C@@H](CCc1ccccc1)C(=O)O)C(=O)N1CCC[C@H]1C(=O)O [Lisinopril]
